{
  "source": "patent US20040029965A1",
  "about": "“Formulations for reducing or eliminating toxicity of enviromental hormones containing ursodeoxycholic acid” (priority 2000, published 2004)",
  "system": "Ovariectomized female B6C3F1 mice",
  "assay": "Uterus weight changes by bisphenol A (uterine proliferation)",
  "format": "in vivo",
  "method": "Ovariectomized female B6C3F1 mice of 5 weeks old, the average weight of which was 18 to 22 g and had been bred in CRJ, were purchased. They were acclimated under the constant breeding conditions, i.e. the constant temperature of 24±1° C., the humidity of 60±10% and the light and darkness cycle of 12 hours, for one week and then, utilized in the experiment. The animals were supplied with solid feed purchased from Purina and supplied with water ad libitum. After acclimation, test materials dissolved in corn oil were subcutaneously injected once a day for 4 days. The test materials used herein, stock solutions of bisphenol A and UDCA were prepared using ethanol. 2 mg of bisphenol A dissolved in 0.2 ml of corn oil was administered to the mice alone or in combination with UDCA once a day. The administration dose of UDCA was 0.2 or 2.0 mg, and corn oil was administered to the solvent control.\nThe results are expressed as Mean±Standard Deviation values. ANOVA was performed to evaluate the mean distribution of administered groups. In case that the significance was recognized in ANOVA, the Student's t-test was carried out in the levels of p<0.05 and p<0.01.",
  "data": [
    {"smiles": "CC(C)(c1ccc(O)cc1)c1ccc(O)cc1", "note": "[Bisphenol A, bisphenol A]", "values": [
      {"measurement": "increase of the weight of uterus", "setting": "2 mg of bisphenol A once a day, versus corn oil control", "result": "about two-fold increased"},
      {"measurement": "Mean weight of uterus ± SD", "setting": "Bisphenol A 2 mg/day s.c. for 4 days, alone", "result": "13.5 ± 1.75"}
    ]}
  ]
}
